Experimental data from patent US9955691B2, “Macrocyclic picolinamides as fungicides” (DOW AGROSCIENCES LLC, priority 2014, dated 2018).

Key:
[1] = system: Blumeria graminis f. sp. hordei; test: Fungicidal activity: Barley Powdery Mildew (ERYSGH); type: in vivo; conditions: 100 ppm, 1 DP (1 Day Protectant)
Description: Technical grades of materials were dissolved in acetone, which were then mixed with nine volumes of water containing 110 ppm Triton X-100. The fungicide solutions were applied onto wheat seedlings using an automated booth sprayer to run-off. All sprayed plants were allowed to air dry prior to further handling. All fungicides were evaluated using the aforementioned method for their activity vs. all target diseases, unless stated otherwise. Wheat leaf blotch and brown rust activity were also evaluated using track spray applications, in which case the fungicides were formulated as EC formulations, containing 0.1% Trycol 5941 in the spray solutions. Wheat plants (variety Yuma) were grown from seed in a greenhouse in 50% mineral soil/50% soil-less Metro mix until the first leaf was fully emerged, with 7-10 seedlings per pot. These plants were inoculated with an aqueous spore suspension of Septoria tritici either prior to or after fungicide treatments. After inoculation the plants were kept in 100% relative humidity (one day in a dark dew chamber followed by two to three days in a lighted dew chamber at 20° C.) to permit spores to germinate and infect the leaf. The plants were then transferred to a greenhouse set at 20° C. for disease to develop. When disease symptoms were fully expressed on the 1st leaves of untreated plants, infection levels were assessed on a scale of 0 to 100 percent disease severity. Percent disease control was calculated using the ratio of disease severity on treated plants relative to untreated plants. Evaluation of Fungicidal Activity: Barley Powdery Mildew (Blumeria graminis f. Sp. hordei; Synonym: Erysiphe graminis f. Sp. hordei; Bayer Code […]) Barley seedlings (variety Harrington) were propagated in soil-less Metro mix, with each pot having 8 to 12 plants, and used in the test when first leaf was fully emerged. Test plants were inoculated by dusting with infected stock plants 24 hr after fungicide treatments. After inoculation the plants were kept in a greenhouse set at 20° C. for disease to develop. Fungicide formulation, application and disease assessment on the sprayed leaves followed the procedures as described in the Example A.

Uncinula necator = test: Fungicidal activity: Grape Powdery Mildew (UNCINE); type: in vivo; conditions: 100 ppm, 1 DP (1 Day Protectant)
Description: Technical grades of materials were dissolved in acetone, which were then mixed with nine volumes of water containing 110 ppm Triton X-100. The fungicide solutions were applied onto wheat seedlings using an automated booth sprayer to run-off. All sprayed plants were allowed to air dry prior to further handling. All fungicides were evaluated using the aforementioned method for their activity vs. all target diseases, unless stated otherwise. Wheat leaf blotch and brown rust activity were also evaluated using track spray applications, in which case the fungicides were formulated as EC formulations, containing 0.1% Trycol 5941 in the spray solutions. Wheat plants (variety Yuma) were grown from seed in a greenhouse in 50% mineral soil/50% soil-less Metro mix until the first leaf was fully emerged, with 7-10 seedlings per pot. These plants were inoculated with an aqueous spore suspension of Septoria tritici either prior to or after fungicide treatments. After inoculation the plants were kept in 100% relative humidity (one day in a dark dew chamber followed by two to three days in a lighted dew chamber at 20° C.) to permit spores to germinate and infect the leaf. The plants were then transferred to a greenhouse set at 20° C. for disease to develop. When disease symptoms were fully expressed on the 1st leaves of untreated plants, infection levels were assessed on a scale of 0 to 100 percent disease severity. Percent disease control was calculated using the ratio of disease severity on treated plants relative to untreated plants. Evaluation of Fungicidal Activity: Grape Powdery Mildew (Uncinula necator; Bayer code […]) Grape seedlings (variety Carignane) were grown in soil-less Metro mix, with one plant per pot, and used in the test when approximately one month old. Plants were inoculated 24 hr after fungicide treatment by shaking spores from infected leaves over test plants. Plants were maintained in a greenhouse set at 20° C. until disease was fully developed. […]

Alternaria solani = test: Fungicidal activity: Tomato Early Blight (ALTESO); type: in vivo; conditions: 100 ppm, 1 DP (1 Day Protectant)
Description: Technical grades of materials were dissolved in acetone, which were then mixed with nine volumes of water containing 110 ppm Triton X-100. The fungicide solutions were applied onto wheat seedlings using an automated booth sprayer to run-off. All sprayed plants were allowed to air dry prior to further handling. All fungicides were evaluated using the aforementioned method for their activity vs. all target diseases, unless stated otherwise. Wheat leaf blotch and brown rust activity were also evaluated using track spray applications, in which case the fungicides were formulated as EC formulations, containing 0.1% Trycol 5941 in the spray solutions. Wheat plants (variety Yuma) were grown from seed in a greenhouse in 50% mineral soil/50% soil-less Metro mix until the first leaf was fully emerged, with 7-10 seedlings per pot. These plants were inoculated with an aqueous spore suspension of Septoria tritici either prior to or after fungicide treatments. After inoculation the plants were kept in 100% relative humidity (one day in a dark dew chamber followed by two to three days in a lighted dew chamber at 20° C.) to permit spores to germinate and infect the leaf. The plants were then transferred to a greenhouse set at 20° C. for disease to develop. When disease symptoms were fully expressed on the 1st leaves of untreated plants, infection levels were assessed on a scale of 0 to 100 percent disease severity. Percent disease control was calculated using the ratio of disease severity on treated plants relative to untreated plants. Evaluation of Fungicidal Activity: Tomato Early Blight (Alternaria solani; Bayer Code […]) Tomato plants (variety Outdoor Girl) were propagated in soil-less Metro mix, with each pot having one plant, and used when 12 to 14 days old. Test plants were inoculated with an aqueous spore suspension of Alternaria solani 24 hr after fungicide treatments. After inoculation the plants were kept in 100% relative humidity (one day in a dark dew chamber followed by two to three days in a lighted dew chamber at 20° C.) to permit spores to germinate and infect the leaf. The plants were then transferred to a growth room at 22° C. for disease to develop. Fungicide formulation, application and disease assessment on the sprayed leaves followed the procedures as described in the Example A.

CCCC[C@@H]1[C@@H](Cc2ccc(C(F)(F)F)cc2)COC[C@H](NC(=O)c2nccc(OC)c2OCOC(C)=O)C(=O)O[C@H]1C [compound 16]
ERYSGH disease control rating [1]: A (>70) | UNCINE disease control rating (Uncinula necator): A (>70) | ALTESO disease control rating (Alternaria solani): A (>70)

COc1ccnc(C(=O)N[C@H]2COC[C@H](Cc3ccccc3)[C@@H](Cc3ccccc3)[C@H](C)OC2=O)c1OC(C)=O [compound 27]
ERYSGH disease control rating [1]: B (≤70) | melting point: 67 to 71 °C | ALTESO disease control rating (Alternaria solani): A (>70)

COc1ccnc(C(=O)N[C@H]2COC[C@H](c3ccccc3)[C@@H](c3ccccc3)[C@H](C)OC2=O)c1OCOC(C)=O [compound 7]
ERYSGH disease control rating [1]: A (>70) | UNCINE disease control rating (Uncinula necator): A (>70) | melting point: 59 to 64 °C | ALTESO disease control rating (Alternaria solani): A (>70)

COc1ccnc(C(=O)N[C@H]2COC[C@H](Cc3ccccc3)[C@@H](Cc3ccccc3)[C@H](C)OC2=O)c1OCOC(C)=O [Cmpd. 3, ((2-(((3S,7R,8R,9S)-7,8-dibenzyl-9-methyl-2-oxo-1,5-dioxonan-3-yl)carbamoyl)-4-methoxypyridin-3-yl)oxy)methyl acetate]
ERYSGH disease control rating [1]: A (>70) | melting point: 56 to 60 °C | ALTESO disease control rating (Alternaria solani): A (>70)

COc1ccnc(C(=O)N[C@H]2COC[C@H](CC3CC3)[C@@H](c3ccccc3)[C@H](C)OC2=O)c1OC(C)=O [compound 100]
ERYSGH disease control rating [1]: A (>70) | ALTESO disease control rating (Alternaria solani): A (>70)

CCCC[C@@H]1[C@@H](Cc2ccccc2)COC[C@H](NC(=O)c2nccc(OC)c2OCOC(=O)C(C)C)C(=O)O[C@H]1C [compound 1]
ERYSGH disease control rating [1]: A (>70) | UNCINE disease control rating (Uncinula necator): A (>70) | ALTESO disease control rating (Alternaria solani): A (>70)
